# Experimental data as given in US7485434B2, “Method for screening compounds for those that modulate transducers of regulated CREB activity” (The Salk Institute for Biological Studies, priority 2005, dated 2009).
# Experiments:
# CREB target gene NR4A2 = assay: Quantitative PCR of CREB target gene NR4A2 in MIN6 insulinoma cells; type: cell-based
# Protocol: FIG. 1B presents quantitative PCR (Q-PCR) analysis of the CREB target gene NR4A2 in MIN6 insulinoma cells exposed to glucose (20 mM) and/or exendin-4 (10 nM).
# Cells were treated with cAMP agonist (Forskolin, 10 μM) and KCl (45 mM) or vehicle control. For glucose experiments, MIN6 cells were starved overnight in DME containing 2.75 mM glucose plus 16 mM mannitol and 10% FBS. The next day the medium was changed for the indicated times+inhibitor. Total RNA from treated MIN6 or HIT cells was extracted using an RNeasy mini-kit (Qiagen, Valencia, Calif.). 500 ng-1 μg of total RNA was used for generating cDNA with Superscript II enzyme (Invitrogen, Carlsbad, Calif.). cDNAs were analyzed by quantitative PCR using SYBR green PCR kit and an ABIPRISM 7700 Sequence detector (Perkin Elmer, Foster City, Calif.). All PCR data for CREB target NR4A2 (Conkright et al., 2003b) was normalized to ribosomal L32 or 36B4 expression in the corresponding sample.
# Hamster insulinoma (HIT) cells were employed to test the relative effects of cAMP and calcium signals on CREB activity. Opening of voltage-sensitive L-type calcium channels in response to KC1 depolarization induced the CREB-dependent EVX-1 promoter (Conknight et al., 2003b) 5-fold in HIT cells, whereas addition of cAMP agonist stimulated the reporter 10-fold (see FIG. 1A). […]
# TORC2 [1] = assay: TORC2 localization, Ser171 phosphorylation and promoter recruitment in liver after IP injection; type: in vivo; details: mice
# TORC2 [2] = assay: TORC2 phosphorylation in primary rat hepatocytes (Western blot); type: cell-based; details: primary rat hepatocytes
# From the text: FIG. 18B illustrates the effect of CHX on levels of phospho (Ser171) TORC2 in primary rat hepatocytes treated with glucagon over a variety of time points, shown in hours. Western blot assay indicates the levels of TORC2, phospho (Ser171) TORC2 and CREB.
# Specifically, FIG. 19A, top, presents a Western blot showing the effect of US and SIK1 RNAi adenoviruses on the levels of SIK1 protein in rat hepatocytes. FIG. 19A, bottom, presents a Western blot assay with nondiscriminating TORC2 antiserum, showing the effect of SIK1 RNAi adenovirus on TORC2 dephosphorylation (compare P-TORC2 and TORC2 bands) following exposure of primary rat hepatocytes to glucagon (Gluc). The arrow identifies phosphorylated TORC2.
# Cells were exposed to AICAR and FSK for 30 minutes. Lower mobility bands (arrow) indicate phosphorylated TORC2 polypeptides.
# Rat primary hepatocytes were prepared from 200-300g of Sprague-Dawley rats by collagenase perfusion method as described previously (see Koo et al., 2004). 1×10^6 cells were plated in 6 well plates with medium 199 (Invitrogen, Carlsbad, Calif.) supplemented by 10% FBS, 10 units/ml penicillin, 10 μg/ml streptomycin, and 10 nM dexamethasone for 3-6 hours. After attachment, cells were infected with adenoviruses for 16 hours. Subsequently, cells were maintained in medium 199 without FBS and dexamethasone for 24 hours (for cDNA expression adenoviruses) or 48 hours (for RNAi adenoviruses) and […] forskolin or 100 nM glucagon for 2 hours unless noted otherwise. For experiments with cycloheximide, 10 μg/ml cycloheximide was added 30 minutes prior to the addition of 100 nM glucagon.
# Like other signaling pathways, cAMP stimulates gluconeogenic gene expression with burst-attenuation kinetics (see Sasaki et al., 1984). Following exposure of primary hepatocytes to Forskolin, PEPCK mRNA levels became maximal after 2 hours, returning to near baseline after 4 hours (see FIG. 18A). […] Consistent with this, CHX pre-treatment potentiated gluconeogenic gene expression in primary rat hepatocytes exposed to glucagon 2-3 fold (see FIG. 18C). […]
# CREB = CREB Ser133 phosphorylation in liver after IP injection (histochemical and Western blot); type: in vivo; details: mice; intraperitoneal administration
# β cell = details: organ transplant recipients receiving chronic immunosuppressive therapy; cited from earlier work
# TORC2 [3] = assay: Immunofluorescence of TORC localization in ATYB1 fibroblasts; type: cell-based, human; details: ATYB1 cells
# Protocol: Specifically, FIG. 3A presents fluorescence microscopic analysis of Flag-tagged TORC2 in human ATYBI fibroblasts treated with forskolin (10 μM) or control vehicle for 30 minutes as indicated.
# FIG. 3B illustrates the effect of exportin inhibitor leptomycin B (LMB) on nuclear targeting of TORC2 in transfected ATYB1 fibroblasts. DAPI staining is shown alongside to indicate nuclei.
# FIG. 7C, top panels, illustrate the effect of SIK2 (or related family members) on TORC2 subcellular localization. Immunofluorescence microscopy is presented for ATYB1 cells transfected with Flagtagged TORC2 plus wild-type or PKA phosphorylation defective SIK2 (Ser587Ala) as indicated. DAP1 staining is shown below each panel. FIG. 7C, bottom panels, illustrate the effect of Ser171 Ala mutagenesis on cellular localization of TORC2. Treatment with forskolin is indicated.
# FIG. 13, top panels, illustrates the cellular localization of endogenous TORC proteins in ATYBI cells using TORC specific antiserum. The effect of forskolin (10 μM, 30 minutes) and leptomycin B (LMB, 10 ng/ml, 2 hr) treatment is shown. DAP1 staining is shown below to visualize the nuclei. FIG. 13, bottom panel, illustrates the effect of LMB treatment on TORC1 localization in ATYBI cells transfected with flag-tagged TORC1 expression vector. TORC1 localization was followed using anti-flag antiserum. DAP1 staining is shown alongside. […]
# [4] = test system: gluconeogenic genes (PEPCK, PGC-1α, G6Pase); assay: Q-PCR of gluconeogenic gene expression in primary rat hepatocytes; type: cell-based; details: primary rat hepatocytes exposed to glucagon; CHX pre-treatment
# Protocol: Specifically, FIG. 17A illustrates the effect of TORC2 on induction of gluconeogenic genes (PEPCK, PGC-1α, G6Pase) by FSK (10 μM, 2 hr) in cultured primary rat hepatocytes infected with TORC2 or control GFP adenovinus as indicated.
# FIGS. 18A-18H illustrate that the induction of the AMP kinase family member SIK1 by CREB during fasting attenuates the gluconeogenic program. Specifically, FIG. 18A illustrates the time course of PEPCK gene expression in primary rat hepatocytes following exposure to FSK. mRNA levels were determined by Q-PCR analysis.
# FIG. 18C illustrates the effect of CHX pretreatment on induction of gluconeogenic genes (PEPCK, PGC-1α, G6Pase) by glucagon in primary rat hepatocytes. Relative mRNA levels are shown.
# FIG. 19B summarizes the effect of SIK1 RNAi on gluconeogenic gene expression in primary rat hepatocytes, presenting Q-PCR analysis showing the relative induction of PEPCK, PGC-1α, and G6Pase mRNAs by glucagon in cells infected with control (US) or SIK1 RNAi expressing adenoviruses.
# FIG. 20D summarizes the effect of AlCAR on expression of gluconeogenic genes (PEPCK, PGC-1α) in primary rat hepatocytes. Cells infected with mutant Ser171Ala TORC2 (171) adenovinus indicated. Treatment with AICAR and FSK is shown.
# Rat primary hepatocytes were prepared from 200-300g of Sprague-Dawley rats by collagenase perfusion method as described previously (see Koo et al., 2004). […]
molecule,measurement,setting,value
Exendin-4,NR4A2 mRNA levels enhanced,CREB target gene NR4A2; co-stimulation glucose (20 mM) plus exendin-4 (10 nM),35 fold
glucagon,recruitment of TORC2 to gluconeogenic genes (ChIP of liver tissue),TORC2 [1]; 10 minutes after IP administration,promoted recruitment of TORC2 to gluconeogenic genes
same,TORC2 phosphorylation at Ser171 in liver,TORC2 [1]; IP administration,dephosphorylated
same,nuclear translocation of hepatic TORC2,TORC2 [1]; IP administration,induced translocation of TORC2 to liver nuclei
same,time to translocation of TORC2 to liver nuclei,TORC2 [1]; IP administration,≤ 10 min
same,TORC2 phosphorylation at Ser171,TORC2 [2]; 3 hours after stimulation,strongly induced
same,CREB Ser133 phosphorylation in liver,CREB,promote CREB Ser133 phosphorylation in liver
same,time to CREB Ser133 phosphorylation in liver,CREB,≤ 10 min
C=CC[C@@H]1/C=C(\C)C[C@H](C)C[C@H](OC)[C@H]2O[C@@](O)(C(=O)C(=O)N3CCCC[C@H]3C(=O)O[C@H](/C(C)=C/[C@@H]3CC[C@@H](O)[C@H](OC)C3)[C@H](C)[C@@H](O)CC1=O)[C@H](C)C[C@@H]2OC [FK506],β cell failure and diabetes,β cell,cause β cell failure and diabetes with high frequency
O=C[C@H](O)[C@@H](O)[C@H](O)[C@H](O)CO [glucose],induction of NR4A2 expression,CREB target gene NR4A2; high glucose (20 mM),5 fold
CCC(=C/[C@H](C)C/C=C/C(C)=C/[C@@H](C)C(=O)[C@@H](C)[C@H](O)[C@@H](C)C/C(C)=C/C(=O)O)/C=C/[C@@H]1OC(=O)C=C[C@@H]1C [leptomycin B],time to nuclear accumulation of TORC,TORC2 [3],30 to 60 min
same,nuclear accumulation of TORC,TORC2 [3]; forskolin 10 μM or LMB 10 ng/ml,strongly enhanced nuclear accumulation
C[C@@H]1C[C@@H]([C@H](O)CC2CC(=O)NC(=O)C2)C(=O)[C@@H](C)C1 [cycloheximide],potentiation of gluconeogenic gene expression,[4],2-3 fold
same,effect on TORC2 Ser171 phosphorylation by glucagon at 3 hours,TORC2 [2]; CHX pre-treatment 10 μg/ml,blocked phosphorylation of TORC2 at Ser171
